Among the data in ChEMBL document CHEMBL3792349, “Synthesis of novel diazaphosphinanes coumarin derivatives with promoted cytotoxic and anti-tyrosinase activities” (Bioorg Med Chem Lett, 2016) are IC50 and inhibition values, retold here.

The source made the active and inactive calls. The calls are words filed in the database; no cut-off is given here.

In one assay the test system is MCF7. Description: Cytotoxicity against human MCF7 cells assessed as inhibition of cell proliferation after 48 hrs by MTT assay. In kind it is functional, cell-based. (Tetrazolium dyes change colour on reduction, which living cells bring about.)
The nature of assay [1]: Cytotoxicity against human HCT116 cells assessed as inhibition of cell proliferation after 48 hrs by MTT assay. It counts as functional, cell-based, HCT-116.
Assay [2] has as its target T1, Tyrosinase (Agaricus bisporus) (UniProt O42713).
T1 sequence (whole entry): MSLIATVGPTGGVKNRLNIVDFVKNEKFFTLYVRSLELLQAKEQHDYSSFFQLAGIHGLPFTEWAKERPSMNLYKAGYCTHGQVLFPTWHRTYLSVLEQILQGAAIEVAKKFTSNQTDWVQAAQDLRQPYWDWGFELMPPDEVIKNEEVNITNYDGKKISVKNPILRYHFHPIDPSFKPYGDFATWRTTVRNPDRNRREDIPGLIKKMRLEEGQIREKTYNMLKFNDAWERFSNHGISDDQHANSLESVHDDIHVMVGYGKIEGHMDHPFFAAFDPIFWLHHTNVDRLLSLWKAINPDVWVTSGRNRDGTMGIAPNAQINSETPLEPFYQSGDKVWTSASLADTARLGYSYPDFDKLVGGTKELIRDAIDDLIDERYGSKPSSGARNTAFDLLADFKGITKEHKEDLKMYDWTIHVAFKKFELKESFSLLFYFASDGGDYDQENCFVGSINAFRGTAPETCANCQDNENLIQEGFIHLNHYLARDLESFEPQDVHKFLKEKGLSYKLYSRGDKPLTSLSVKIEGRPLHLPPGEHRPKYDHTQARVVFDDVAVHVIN
Description: Inhibition of mushroom tyrosinase using L-tyrosine as substrate assessed as dopachrome formation at 100 uM measured for 10 mins by spectrophotometric method relative to control.

Turning to `CCCCOc1ccc(C2C3=C(NP(=S)(c4ccc(OC)cc4)NC3=S)Oc3c2c(=S)oc2ccccc32)cc1` (single isomer, unassigned; diastereomer 2) [listing 1 of 2 here], the IC50 in the assay on MCF7 (mcf7) is greater than 100 µM; in assay [1] (hct-116), 56 µM.

On to `COc1ccc(C2C3=C(NP(=S)(c4ccc(OC)cc4)NC3=S)Oc3c2c(=S)oc2ccccc32)cc1` (single isomer, unassigned; diastereomer 1) [listing 1 of 2 here], for which the inhibition entry in assay [2] is “inactive”. On the same count and under the same terms, for `COc1ccc(P2(=S)NC(=S)C3=C(N2)Oc2c(c(=S)oc4ccccc24)C3c2ccc(Cl)cc2)cc1` (single isomer, unassigned; diastereomer 1) [listing 1 of 2 here] the value was 80.7%. `COc1ccc(C2C3=C(NP(=S)(c4ccc(OC)cc4)NC3=S)Oc3c2c(=S)oc2ccccc32)cc1` (single isomer, unassigned; diastereomer 2) [listing 1 of 2 here]: the inhibition in assay [2] was 68.8%. As to `COc1ccc(P2(=S)NC(=S)C3=C(N2)Oc2c(c(=S)oc4ccccc24)C3c2ccc(Cl)cc2)cc1` (single isomer, unassigned; diastereomer 1) [listing 2 of 2 here], the IC50 in the assay on MCF7 (Homo sapiens, MCF7, 48 h) came to 32 µM; in assay [1] (Homo sapiens, HCT-116, 48 h), 32 µM. Take `COc1ccc(P2(=S)NC(=S)C3=C(N2)Oc2c(c(=S)oc4ccccc24)C3c2ccccc2)cc1` (single isomer, unassigned; diastereomer 1) [listing 1 of 2 here]: the IC50 in the assay with MCF7 (Homo sapiens, MCF7, 48 h) was greater than 100 µM; in assay [1] (Homo sapiens, HCT-116, 48 h) it was 71 µM. Regarding `COc1ccc(P2(=S)NC(=S)C3=C(N2)Oc2c(c(=S)oc4ccccc24)C3c2ccccc2)cc1` (single isomer, unassigned; diastereomer 2) [listing 1 of 2 here], in assay [1] (hct-116), the IC50 came to 68 µM. For `COc1ccc(P2(=S)NC(=S)C3=C(N2)Oc2c(c(=S)oc4ccccc24)C3c2ccc(OC)c(OC)c2)cc1` (single isomer, unassigned; diastereomer 1) [listing 1 of 2 here], the IC50 in the assay on MCF7 (Homo sapiens, MCF7, 48 h) is greater than 100 µM; in assay [1] (Homo sapiens, HCT-116, 48 h), greater than 100 µM. For the molecule `COc1ccc(P2(=S)NC(=S)C3=C(N2)Oc2c(c(=S)oc4ccccc24)C3c2ccccc2)cc1` (single isomer, unassigned; diastereomer 1) [listing 2 of 2 here], the inhibition result in assay [2] is “inactive”. Regarding `COc1ccc(P2(=S)NC(=S)C3=C(N2)Oc2c(c(=S)oc4ccccc24)C3c2ccc(C)cc2)cc1` (single isomer, unassigned; diastereomer 2) [listing 1 of 2 here], the figures for the IC50 (with MCF7 (mcf7); in assay [1] (hct-116)) were 40 µM and 37 µM, respectively. With `COc1ccc(P2(=S)NC(=S)C3=C(N2)Oc2c(c(=S)oc4ccccc24)C3c2ccccc2)cc1` (single isomer, unassigned; diastereomer 2) [listing 2 of 2 here], the inhibition entry in assay [2] was “inactive”.

For the molecule `CCCCOc1ccc(C2C3=C(NP(=S)(c4ccc(OC)cc4)NC3=S)Oc3c2c(=S)oc2ccccc32)cc1` (single isomer, unassigned; diastereomer 2) [listing 2 of 2 here], in assay [2], the inhibition came out at 88.7%. Turning to `COc1ccc(P2(=S)NC(=S)C3=C(N2)Oc2c(c(=S)oc4ccccc24)C3c2cccnc2)cc1` (stereo not given), the IC50 was greater than 100 µM in the assay with MCF7 (Homo sapiens, MCF7, 48 h) and greater than 100 µM in assay [1] (Homo sapiens, HCT-116, 48 h). In addition, in assay [2], the inhibition result is “inactive”. `COc1ccc(P2(=S)NC(=S)C3=C(N2)Oc2c(c(=S)oc4ccccc24)C3c2ccc(Cl)cc2)cc1` (single isomer, unassigned; diastereomer 2) [listing 1 of 2 here]: the IC50 in the assay on MCF7 (mcf7) was 33 µM; in assay [1] (hct-116), 30 µM.

With `COc1cccc2c1C(=O)c1c(O)c3c(c(O)c1C2=O)C[C@@](O)(C(=O)CO)C[C@@H]3O[C@H]1C[C@H](N)[C@H](O)[C@H](C)O1` [DOXORUBICIN], in the assay with MCF7 (Homo sapiens, MCF7, 48 h), the IC50 amounted to 0.38 µM. As for `COc1ccc(P2(=S)NC(=S)C3=C(N2)Oc2c(c(=S)oc4ccccc24)C3c2ccc(C)cc2)cc1` (single isomer, unassigned; diastereomer 1) [listing 1 of 2 here], the IC50 was greater than 100 µM with MCF7 (mcf7) and 48 µM in assay [1] (Homo sapiens, HCT-116, 48 h).

Consider `COc1ccc(P2(=S)NC(=S)C3=C(N2)Oc2c(c(=S)oc4ccccc24)C3c2ccc(OC)c(OC)c2)cc1` (single isomer, unassigned; diastereomer 1) [listing 2 of 2 here], for which, in assay [2], the inhibition result was “inactive”. Regarding `COc1ccc(P2(=S)NC(=S)C3=C(N2)Oc2c(c(=S)oc4ccccc24)C3c2ccccn2)cc1` (stereo not given), the IC50 in the assay with MCF7 (Homo sapiens, MCF7, 48 h) is greater than 100 µM; in assay [1] (Homo sapiens, HCT-116, 48 h), greater than 100 µM. Also, in assay [2], the inhibition was 97.4%. In the case of `COc1ccc(C2C3=C(NP(=S)(c4ccc(OC)cc4)NC3=S)Oc3c2c(=S)oc2ccccc32)cc1` (single isomer, unassigned; diastereomer 1) [listing 2 of 2 here], the IC50 in the assay with MCF7 (Homo sapiens, MCF7, 48 h) is greater than 100 µM; in assay [1] (Homo sapiens, HCT-116, 48 h), 49 µM.

Regarding `CCCCOc1ccc(C2C3=C(NP(=S)(c4ccc(OC)cc4)NC3=S)Oc3c2c(=S)oc2ccccc32)cc1` (single isomer, unassigned; diastereomer 1) [listing 1 of 2 here], in assay [2], the inhibition stood at 55%.

For the molecule `COc1ccc(P2(=S)NC(=S)C3=C(N2)Oc2c(c(=S)oc4ccccc24)C3c2ccc(Cl)cc2)cc1` (single isomer, unassigned; diastereomer 2) [listing 2 of 2 here], the inhibition in assay [2] is 16.1%. The same measure, in the same setting: for `COc1ccc(P2(=S)NC(=S)C3=C(N2)Oc2c(c(=S)oc4ccccc24)C3c2ccc(C)cc2)cc1` (single isomer, unassigned; diastereomer 2) [listing 2 of 2 here] the value was 61.8%; for `COc1ccc(P2(=S)NC(=S)C3=C(N2)Oc2c(c(=S)oc4ccccc24)C3c2ccc(C)cc2)cc1` (single isomer, unassigned; diastereomer 1) [listing 2 of 2 here], 58.5%. `COc1ccc(C2C3=C(NP(=S)(c4ccc(OC)cc4)NC3=S)Oc3c2c(=S)oc2ccccc32)cc1` (single isomer, unassigned; diastereomer 2) [listing 2 of 2 here]: the IC50 is 99 µM with MCF7 (mcf7) and 31.6 µM in assay [1] (hct-116). For the molecule `CCCCOc1ccc(C2C3=C(NP(=S)(c4ccc(OC)cc4)NC3=S)Oc3c2c(=S)oc2ccccc32)cc1` (single isomer, unassigned; diastereomer 1) [listing 2 of 2 here], the concentration for half-maximal inhibition (IC50) in the assay on MCF7 (mcf7) amounted to 37.2 µM; in assay [1] (hct-116), 25.2 µM. As to `COc1ccc(P2(=S)NC(=S)C3=C(N2)Oc2c(c(=S)oc4ccccc24)C3c2ccc(OC)c(OC)c2)cc1` (single isomer, unassigned; diastereomer 2), in assay [2], the inhibition amounted to 56.8%.

One may read the IC50 as the concentration that gives 50% inhibition. As usually defined, the inhibition is the drop in the measured response relative to a control, in per cent.
